The source of these data is patent US8501816B2, “Antitussive compositions comprising memantine” (Cerecor, Inc., priority 2010, dated 2013).

Molecules are shown by their SMILES. Marks after values point to notes of the source that are not given here.

The subject of one series is Caco-2 cells. Kind of series: Memantine in vitro intestinal permeability (Caco-2 cells). The note with it: FIG. 12. Format: in vitro ADME. For orientation: Passage across Caco-2 layers is used to estimate intestinal permeability.
The nature of series [1]: Sedation and side effects observed in the cough studies. The note with it: for Sedation (FIG. 20): 30 mg/kg intraperitoneally; for Animals with mild to moderate sedation: n=8; for Sedation: 50 mg/kg, precluded assessment of cough.
The subject of the next series is cough. The note with it: cited from earlier work.
A short description of series [2]: Respiratory parameters during cough challenge. Format: in vivo, guinea pig. To be noted: 50 mg/kg; controls 117.7(±26.3). On the procedure:
Using a similar chamber and nebulizer system, animals were treated first with aerosolized peptidase inhibitors (captopril 0.1 μM and thiorphan 0.1 μM, 5 minutes nebulization) to reduce bradykinin degradation and enhance tussive responses evoked by bradykinin (unpublished observations). Animals were then exposed to increasing concentrations of aerosolized bradykinin (0.1-3 mg/mL), again for 5 minute periods. Coughs are counted during this and the subsequent 5 minutes. Pressure changes within the chamber are used to monitor respiratory rate (Biopac Systems Inc, Goleta, Calif.).

For series [3], the system named is citric acid induced cough. Kind of series: Citric acid induced cough in conscious guinea pigs. To be noted: for Effect on cumulative number of coughs evoked by lower concentrations of citric acid (0.01-0.1 M): 30 mg/kg; for Cumulative numbers of cough, median, citric acid 0.01M / Cumulative numbers of cough, median, citric acid 0.1M / Cumulative numbers of cough, median, citric acid 0.3M / Effect on cumulative number of coughs evoked by citric acid (0.01-0.3M) compared to controls: 30 mg/kg intraperitoneally; for Mean ± sem cumulative coughs / ≧15 Cumulative coughs/total number of guinea pigs: potentially synergistic agents; for Effect of single agent on citric acid (0.01-0.3M) induced cough: oral, 60 minutes prior, memantine 3, guaifenesin 100, diphenhydramine 10, benzonatate 30, ambroxol 100 mg/kg.
Protocol: Male Hartley guinea pigs (200-700 g) were studied and all experiments were first approved by the institutional Animal Care and Use Committee.
Animals were placed in a transparent chamber (Buxco Research Systems, Wilmington, N.C.) with a continuous flow of air and exposed to increasing concentrations of citric acid (0.01 M-0.3 M) is delivered by an ultrasonic nebulizer generating aerosol particles of 3-6 μm diameter. Coughs were counted during a 5 minute nebulization period and over the subsequent 5 minutes with the assistance of sound and pressure monitoring from the chamber. Respiratory rate and tidal volume were monitored throughout via a calibrated pressure transducer (Emka Technologies, Falls Church, Va.).
Each of these drugs was administered orally in half-log increments (e.g. 3 mg/kg, 10 mg/kg, 30 mg/kg) in an unpaired experimental design (each animal received only 1 dose of drug). The drugs were administered 60 minutes prior to citric acid challenge, which consisted of 5 minute challenges with aerosols of increasing concentrations of citric acid (0.01-0.3M), with 5 minute intervals in between escalating doses of the tussive stimulus.

Series [4] has as its system citric acid evoked coughing. Kind of series: Microinjection of NMDA receptor antagonists into the central termination sites of the cough receptors. Format: in vivo, guinea pig. To be noted: anesthetized guinea pigs.
The conditions of series [5]: in vivo, po; cited from earlier work.
The test system of series [6] is freezing behavior during cued fear conditioning. Kind of series: Cued fear conditioning in mice. Format: in vivo. To be noted: diphenhydramine 20 mg/kg IP, p=0.061. As to the method: The effects of memantine on enhancing cognition were investigated with fear conditioning tests on mice. Specifically, the fear conditioning test exposed mice to a conditioned stimulus (a tone) and an unconditioned stimulus (a mild electric shock). The mice learned to associate the tone with the shock as reflected by freezing. After being adequately conditioned, the mice were administered memantine or a control (vehicle alone). […] Fear Conditioning: Fear conditioning mouse chambers (7''W×7''D×12''H; Coulbourne Instruments, […] Valley, Pa.) were housed in sound attenuating chambers. A camera was mounted on the ceiling of the chamber to capture mouse behavior (FreezeFrame software, Coulbourne Instruments, […] Valley, Pa.); data were analyzed by Freezeview software (Coulbourne Instruments, […] Valley, Pa.). Fear conditioning chambers were calibrated prior to each experiment to ensure that each chamber delivers the same shock intensity. […] Pavlovian fear conditioning refers to the learning of associations between a negative reinforcer (e.g., a mild electric foot shock/s), a novel context (e.g. a context) and/or a specific, neutral, cue (e.g., tone or white noise). To assess contextual and cued (tone) learning and memory, a standardized fear conditioning task developed for the evaluation of memory in rodents was used. Protocol: […] Cue-induced Conditioning Testing: Mice were tested for cued memory 48 hours after training. The cued conditioning test was conducted in an altered context (i.e., a different test chamber). […] Statistical Analysis: Data are represented as the mean and standard error to the mean. Data were analyzed by analysis of variance (ANOVA) followed by Fisher PLSD, or unpaired t-tests, when appropriate to test a planned comparison. An effect was considered significant if p<0.05. Statistical outliers that fell above or below two standard deviations from the mean were removed from the final analysis.

As for `CC(O)CO` (stereo not shown) [propylene glycol], in the series with Caco-2 cells, the “Effect as permeation enhancer on memantine Caco-2 permeability” value is listed as “ineffective”.
Turning to `CNC1(c2ccccc2Cl)CCCCC1=O` (stereo not shown) [Ketamine], in series [1], the “Sedation (FIG. 20)” value is on record as “moderate to severe sedation in the majority of animals studied” and the Sedation result was “severe sedation”. Also, the “Time at which sedation reversed” value in series [1] (30 mg/kg, during the cough challenge) is 40-50 minutes post-injection. The “Animals with mild to moderate sedation” value in series [1] (30 mg/kg) was determined as 87.5%. Besides, in the series on cough (Young et al.), the “Efficacy in chronic cough patients” value is “ineffective”. In addition, the mean breathing frequency in series [2] was 92.3(±18.8) breaths/min. In series [3], the “Effect on cumulative number of coughs evoked by lower concentrations of citric acid (0.01-0.1 M)” value is “not”; the “Cumulative numbers of cough, median, citric acid 0.01M” value is given as 0.0; the “Cumulative numbers of cough, median, citric acid 0.1M” value was found to be 1.5; the “Cumulative numbers of cough, median, citric acid 0.3M” value is 11.0. Besides, the “Effect on cumulative number of coughs evoked by citric acid (0.01-0.3M) compared to controls” value in series [3] is given as “failed to produce a statistically significant reduction in cumulative coughs”.
On to `COc1ccc2c(c1)[C@]13CCCC[C@@H]1[C@H](C2)N(C)CC3` [Dextromethorphan], for which, in series [1], the “Sedation (FIG. 20)” value is “moderate to severe sedation in the majority of animals studied” and the Sedation result is “severe sedation”. Moreover, the “Animals with mild to moderate sedation” value in series [1] (30 mg/kg) was found to be 62.5%. The same molecule had a Duration of sedation in series [1] (30 mg/kg, persisted throughout the citric acid challenge) above 2 h. Further, in the series with cough (Bolser 2006), the “Efficacy in cough associated with upper respiratory tract infections” value is “ineffective”. Further, the mean breathing frequency in series [2] is given as 90.0(±13.7) breaths/min. Further, in series [3], the “Effect on cumulative number of coughs evoked by lower concentrations of citric acid (0.01-0.1 M)” value is given as “significantly reduced the cumulative number of coughs”; the “Cumulative numbers of cough, median, citric acid 0.01M” value is listed as 0.0; the “Cumulative numbers of cough, median, citric acid 0.1M” value was 0.5*; the “Cumulative numbers of cough, median, citric acid 0.3M” value is reported as 7.5. The “Effect on cumulative number of coughs evoked by citric acid (0.01-0.3M) compared to controls” value in series [3] was “failed to produce a statistically significant reduction in cumulative coughs”. Also, the “Effect of microinjection on citric acid evoked coughing” value in series [4] was “prevents citric acid evoked coughing”.
For `CCCCNc1ccc(C(=O)OCCOCCOCCOCCOCCOCCOCCOCCOCCOC)cc1` [Benzonatate], the “Mean ± sem cumulative coughs” value is given as 24 ± 4 in series [3] (10 mg/kg po) and 13 ± 4 in series [3] (30 mg/kg po). Besides, the figures for the “≧15 Cumulative coughs/total number of guinea pigs” value (“≧15 Cumulative coughs/total number” below) in series [3] (10 mg/kg po) and in series [3] (30 mg/kg po) were 3/3 and 2/5, respectively. Further, the “Effect of single agent on citric acid (0.01-0.3M) induced cough” value (“Effect of single agent on citric acid” below) in series [3] is “failed to inhibit cough”.
As for `CCCCCCCC/C=C\CCCCCCCC(=O)O` [oleic acid], in the series with Caco-2 cells, the “Effect as permeation enhancer on memantine Caco-2 permeability” value is given as “ineffective”.
As to `N[C@@H](Cc1cc(CP(=O)(O)O)cc(-c2ccccc2Cl)c1)C(=O)O` [SDZ220581], in series [4], the “Effect of microinjection on citric acid evoked coughing” value was “prevents citric acid evoked coughing”.
Still for that read-out and setting: for `NC(CCCP(=O)(O)O)C(=O)O` (stereo not shown) [AP5] the value was “prevents citric acid evoked coughing”.
As for `Nc1c(Br)cc(Br)cc1CN[C@H]1CC[C@H](O)CC1` [Ambroxol], in series [3] (100 mg/kg po), the “Mean ± sem cumulative coughs” value is on record as 13 ± 4 and the “≧15 Cumulative coughs/total number” value was 2/6. Moreover, in series [3], the “Effect of single agent on citric acid” value is “failed to inhibit cough”.
As for `Cc1ccc(-c2nc3ccc(C)cn3c2CC(=O)N(C)C)cc1` [zolpidem], the orally bioavailable entry in series [5] is “less than 70%”.
As for `CN(C)CCOC(c1ccccc1)c1ccccc1` [Diphenhydramine], the “cue-induced fear conditioning, CS phase, vs vehicle-vehicle” value in series [6] is listed as “strong trend toward decreased cue-induced fear conditioning”.
As to `COc1ccccc1OCC(O)CO` (stereo not shown) [Guaifenesin, 3-(2-methoxyphenoxy)-1,2-propanediol], the “Mean ± sem cumulative coughs” value in series [3] (50 mg/kg po) was determined as 30 ± 1; in series [3] (100 mg/kg po), 20 ± 5. Further, the figures for the “≧15 Cumulative coughs/total number” value in series [3] (50 mg/kg po) and in series [3] (100 mg/kg po) were 3/3 and 3/4, respectively. Also, the “Effect of single agent on citric acid” value in series [3] is “failed to inhibit cough”.
Regarding `CC1CCC(C(C)C)C(O)C1` (stereo not shown) [Menthol], in series [3] (30 mg/kg po), the “Mean ± sem cumulative coughs” value came to 21 ± 3 and the “≧15 Cumulative coughs/total number” value is 3/3. In addition, in series [3] (100 mg/kg po), the “Mean ± sem cumulative coughs” value is given as 11±2 and the “≧15 Cumulative coughs/total number” value was 1/7.
